Source: ChEMBL document CHEMBL1909046, “DrugMatrix in vitro pharmacology data”

How the values were obtained:
[1] = target: T1, Cysteinyl leukotriene receptor 1 (Homo sapiens, UniProt Q9Y271); type: cell membranes, Membrane; settings: cho-k1; note: in other assays of this panel Not Active means under 50% inhibition at 10 µM
T1 sequence (Q9Y271 whole entry): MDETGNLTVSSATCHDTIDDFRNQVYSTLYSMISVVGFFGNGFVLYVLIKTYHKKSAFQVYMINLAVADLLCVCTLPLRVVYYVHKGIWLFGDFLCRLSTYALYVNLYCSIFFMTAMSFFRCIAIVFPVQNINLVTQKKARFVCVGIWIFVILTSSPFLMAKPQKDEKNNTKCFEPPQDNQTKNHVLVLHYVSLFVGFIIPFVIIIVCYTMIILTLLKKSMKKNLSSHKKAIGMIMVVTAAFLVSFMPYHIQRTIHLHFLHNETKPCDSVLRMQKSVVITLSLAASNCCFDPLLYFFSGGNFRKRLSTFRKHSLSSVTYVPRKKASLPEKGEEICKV

Leukotriene C4 synthase = target: T2, Leukotriene C4 synthase (Cavia porcellus, UniProt A6XA80); type: tissue-based, Lung;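 note: enzyme inhibition assay of leukotriene C4 synthase, using LTA4 as the substrate; in other assays of this panel Not Active means under 50% inhibition at 10 µM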
T2 sequence (A6XA80 whole entry): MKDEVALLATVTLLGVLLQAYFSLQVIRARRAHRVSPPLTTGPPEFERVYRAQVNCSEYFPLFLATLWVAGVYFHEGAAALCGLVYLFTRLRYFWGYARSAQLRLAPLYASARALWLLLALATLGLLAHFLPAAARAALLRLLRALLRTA

[2] = DRUGMATRIX: Sodium/nucleoside co-transporter radioligand binding (ligand: nitrobenzylthioinosine); type: cell membranes, Cavia porcellus, Dunkin-Hartley, Cerebral cortex, Membrane; settings: Not Active = under 50% inhibition at 10 µM
[3] = target: T3, Alpha-1B adrenergic receptor (Rattus norvegicus, UniProt P15823); experiment: DRUGMATRIX: Alpha-1B adrenergic receptor radioligand binding (ligand: prazosin); type: cell membranes, Wistar, Liver, Membrane; settings: Not Active = under 50% inhibition at 10 µM
T3 sequence (P15823 whole entry): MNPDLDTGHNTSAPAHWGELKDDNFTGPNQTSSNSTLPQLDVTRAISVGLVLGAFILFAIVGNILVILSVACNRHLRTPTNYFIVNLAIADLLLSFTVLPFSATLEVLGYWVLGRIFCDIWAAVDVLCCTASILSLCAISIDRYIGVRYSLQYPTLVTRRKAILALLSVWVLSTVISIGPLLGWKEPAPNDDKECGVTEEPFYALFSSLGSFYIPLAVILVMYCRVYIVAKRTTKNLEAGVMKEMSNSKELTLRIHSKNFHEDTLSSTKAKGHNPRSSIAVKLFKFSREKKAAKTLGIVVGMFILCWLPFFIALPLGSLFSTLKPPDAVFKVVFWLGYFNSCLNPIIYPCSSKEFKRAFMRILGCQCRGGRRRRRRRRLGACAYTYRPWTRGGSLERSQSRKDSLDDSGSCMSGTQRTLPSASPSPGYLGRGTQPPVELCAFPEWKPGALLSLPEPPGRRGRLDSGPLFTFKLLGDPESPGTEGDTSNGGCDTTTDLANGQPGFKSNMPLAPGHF

[4] = target: T4, Neuropeptide Y receptor type 1 (Homo sapiens, UniProt P25929); type: cell membranes, Membrane; settings: sk-n-mc; note: in other assays of this panel Not Active means under 50% inhibition at 10 µM
T4 sequence (P25929 whole entry): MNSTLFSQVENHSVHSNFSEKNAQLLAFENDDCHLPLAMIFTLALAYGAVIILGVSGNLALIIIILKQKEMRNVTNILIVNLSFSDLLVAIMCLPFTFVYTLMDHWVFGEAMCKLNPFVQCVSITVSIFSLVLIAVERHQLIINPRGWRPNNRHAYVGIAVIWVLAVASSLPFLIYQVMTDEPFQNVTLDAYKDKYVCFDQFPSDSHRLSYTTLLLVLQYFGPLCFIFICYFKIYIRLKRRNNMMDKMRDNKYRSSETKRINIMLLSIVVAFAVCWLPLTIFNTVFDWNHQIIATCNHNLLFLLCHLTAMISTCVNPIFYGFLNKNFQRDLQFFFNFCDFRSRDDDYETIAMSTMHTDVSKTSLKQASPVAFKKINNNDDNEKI

[5] = target: T5, Nitric oxide synthase, inducible (Mus musculus, UniProt P29477); parameters: species or system Escherichia coli;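 note: inhibition of iNOS enzyme activity measured with L-arginine as substrate; in other assays of this panel Not Active means under 50% inhibition at 10 µM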
T5 sequence (P29477 whole entry): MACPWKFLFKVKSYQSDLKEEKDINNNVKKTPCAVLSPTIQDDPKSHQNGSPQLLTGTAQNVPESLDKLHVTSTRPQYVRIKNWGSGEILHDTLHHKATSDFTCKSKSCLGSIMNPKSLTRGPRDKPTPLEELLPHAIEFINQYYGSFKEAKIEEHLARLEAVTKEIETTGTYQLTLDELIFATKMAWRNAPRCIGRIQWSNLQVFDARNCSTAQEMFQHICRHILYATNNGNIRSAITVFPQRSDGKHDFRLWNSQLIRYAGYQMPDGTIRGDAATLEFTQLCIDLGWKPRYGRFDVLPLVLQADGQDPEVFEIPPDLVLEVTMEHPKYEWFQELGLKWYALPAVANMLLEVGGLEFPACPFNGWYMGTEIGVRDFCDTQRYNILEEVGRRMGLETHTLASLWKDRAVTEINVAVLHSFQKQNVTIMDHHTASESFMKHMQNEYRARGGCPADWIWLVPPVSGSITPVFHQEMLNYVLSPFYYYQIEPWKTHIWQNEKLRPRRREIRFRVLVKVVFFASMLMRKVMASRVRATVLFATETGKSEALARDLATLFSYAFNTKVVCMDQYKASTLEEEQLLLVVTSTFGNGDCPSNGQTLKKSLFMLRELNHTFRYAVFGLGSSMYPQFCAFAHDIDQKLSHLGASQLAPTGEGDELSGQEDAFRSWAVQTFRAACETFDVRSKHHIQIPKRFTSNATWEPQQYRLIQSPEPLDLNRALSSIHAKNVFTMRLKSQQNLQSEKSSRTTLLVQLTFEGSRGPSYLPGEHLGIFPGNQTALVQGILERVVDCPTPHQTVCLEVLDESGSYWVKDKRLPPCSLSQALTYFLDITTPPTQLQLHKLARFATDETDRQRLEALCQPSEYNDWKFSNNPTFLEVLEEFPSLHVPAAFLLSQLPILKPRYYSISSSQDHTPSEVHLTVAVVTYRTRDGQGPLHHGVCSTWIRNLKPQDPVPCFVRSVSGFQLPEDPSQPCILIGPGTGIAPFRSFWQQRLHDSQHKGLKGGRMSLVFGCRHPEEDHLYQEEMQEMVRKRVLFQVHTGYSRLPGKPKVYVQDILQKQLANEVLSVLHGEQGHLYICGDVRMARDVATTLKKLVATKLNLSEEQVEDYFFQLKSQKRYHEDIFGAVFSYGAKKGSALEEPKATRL

[6] = DRUGMATRIX: Atrial Natriuretic Factor (ANF) radioligand binding (ligand: [125I] ANF (rat)); type: cell membranes, Cavia porcellus, Dunkin-Hartley, Adrenal gland, Membrane; settings: Not Active = under 50% inhibition at 10 µM
[7] = DRUGMATRIX: Tumor Necrosis Factor (TNF), Non-Selective radioligand binding (ligand: [125I] TNF-alpha); type: cell membranes, Membrane; settings: u-937; Not Active = under 50% inhibition at 10 µM

AURANOFIN
Not Active: IC50 [1] | Ki [1] | IC50 (Leukotriene C4 synthase) | Ki (Leukotriene C4 synthase) | IC50 [2] | Ki [2] | IC50 [3] | Ki [3] | IC50 [4] | Ki [4] | IC50 [5] | Ki [5] | IC50 [6] | Ki [6] | IC50 [7] | Ki [7]

O=C/C=C/c1ccccc1
Not Active: IC50 [1] | IC50 (Leukotriene C4 synthase) | IC50 [2] | Ki [2] | IC50 [3] | IC50 [4] | IC50 [5] | IC50 [6] | Ki [6] | IC50 [7] | Ki [7]

C=CCc1ccc(O)c(OC)c1 [EUGENOL]
Not Active: IC50 [1] | IC50 (Leukotriene C4 synthase) | IC50 [2] | Ki [2] | IC50 [3] | IC50 [4] | IC50 [5] | IC50 [6] | Ki [6] | IC50 [7] | Ki [7]

COC1=C(OC)C(=O)C(CCCCCCCCCCO)=C(C)C1=O [IDEBENONE]
Not Active: IC50 [1] | IC50 (Leukotriene C4 synthase) | IC50 [2] | Ki [2] | IC50 [3] | IC50 [4] | IC50 [5] | IC50 [6] | Ki [6] | IC50 [7] | Ki [7]

Oc1cccc(O)c1O [PYROGALLOL]
Not Active: IC50 [1] | IC50 (Leukotriene C4 synthase) | IC50 [2] | Ki [2] | IC50 [3] | IC50 [4] | IC50 [5] | IC50 [6] | Ki [6] | IC50 [7] | Ki [7]

C[C@]12C=CC(=O)C=C1CC[C@@H]1[C@@H]2[C@@H](O)C[C@@]2(C)[C@H]1CC[C@]2(O)C(=O)CO [PREDNISOLONE]
Not Active: IC50 [1] | IC50 (Leukotriene C4 synthase) | IC50 [2] | Ki [2] | IC50 [3] | IC50 [4] | IC50 [5] | IC50 [6] | Ki [6] | IC50 [7] | Ki [7]

CC(=O)[C@H]1[C@H](C#N)C[C@H]2[C@@H]3CC=C4C[C@@H](O)CC[C@]4(C)[C@H]3CC[C@@]21C [PREGNENOLONE CARBONITRILE]
Not Active: IC50 [1] | IC50 (Leukotriene C4 synthase) | IC50 [2] | Ki [2] | IC50 [3] | IC50 [4] | IC50 [5] | IC50 [6] | Ki [6] | IC50 [7] | Ki [7]

CC(C(=O)O)c1cccc(Oc2ccccc2)c1 (stereo unspecified) [FENOPROFEN]
Not Active: IC50 [1] | IC50 (Leukotriene C4 synthase) | IC50 [2] | Ki [2] | IC50 [3] | IC50 [4] | IC50 [5] | IC50 [6] | Ki [6] | IC50 [7] | Ki [7]

NNc1nncc2ccccc12 [HYDRALAZINE]
Not Active: IC50 [1] | IC50 (Leukotriene C4 synthase) | IC50 [2] | Ki [2] | IC50 [3] | IC50 [4] | IC50 [5] | IC50 [6] | Ki [6] | IC50 [7] | Ki [7]

O=C1O[C@H]([C@@H](O)CO)C(O)=C1O [ASCORBIC ACID]
Not Active: IC50 [1] | IC50 (Leukotriene C4 synthase) | IC50 [2] | Ki [2] | IC50 [3] | IC50 [4] | IC50 [5] | IC50 [6] | Ki [6] | IC50 [7] | Ki [7]

NC(=O)C[S+]([O-])C(c1ccccc1)c1ccccc1 (stereo unspecified) [MODAFINIL]
Not Active: IC50 [1] | IC50 (Leukotriene C4 synthase) | IC50 [2] | Ki [2] | IC50 [3] | IC50 [4] | IC50 [5] | IC50 [6] | Ki [6] | IC50 [7] | Ki [7]

CCN(CC)CCOCCC1=CCC2CC1C2(C)C (stereo unspecified) [MYRTECAINE]
Not Active: IC50 [1] | IC50 (Leukotriene C4 synthase) | IC50 [2] | Ki [2] | IC50 [3] | IC50 [4] | IC50 [5] | IC50 [6] | Ki [6] | IC50 [7] | Ki [7]

COc1ccc2cc3[n+](cc2c1OC)CCc1cc2c(cc1-3)OCO2.[Cl-] [BERBERINE CHLORIDE]
Not Active: IC50 [1] | IC50 (Leukotriene C4 synthase) | IC50 [2] | Ki [2] | IC50 [3] | IC50 [4] | IC50 [5] | IC50 [6] | Ki [6] | IC50 [7] | Ki [7]

GRAMICIDIN
Not Active: IC50 [1] | Ki [1] | IC50 (Leukotriene C4 synthase) | Ki (Leukotriene C4 synthase) | IC50 [2] | Ki [2] | IC50 [3] | Ki [3] | IC50 [4] | Ki [4] | IC50 [5] | Ki [5] | IC50 [6] | Ki [6] | IC50 [7] | Ki [7]

COc1cc([C@@H]2c3cc4c(cc3[C@@H](O[C@@H]3O[C@@H]5CO[C@@H](C)O[C@H]5[C@H](O)[C@H]3O)[C@H]3COC(=O)[C@H]23)OCO4)cc(OC)c1O [ETOPOSIDE]
Not Active: IC50 [1] | IC50 (Leukotriene C4 synthase) | IC50 [2] | Ki [2] | IC50 [3] | IC50 [4] | IC50 [5] | IC50 [6] | Ki [6] | IC50 [7] | Ki [7]

CCC1(C)CC(=O)NC1=O (stereo unspecified) [ETHOSUXIMIDE]
Not Active: IC50 [1] | IC50 (Leukotriene C4 synthase) | IC50 [2] | Ki [2] | IC50 [3] | IC50 [4] | IC50 [5] | IC50 [6] | Ki [6] | IC50 [7] | Ki [7]
